US12637440B2, “Amide derivative useful as diacylglycerol acyltransferase 2 inhibitor, and use thereof” (LG CHEM, LTD., priority 2019, dated 2026)
pIC50: −log10 of the molar value.

Target: T1, Recombinant human DGAT2 protein (Homo sapiens, UniProt Q96PD7)
T1 construct: FLAG (DYKDDDDK); (N); made in house; host or cells: Sf-21 insect cells (BacPAK baculovirus system); used as a membrane preparation
T1 sequence (Q96PD7 1-388): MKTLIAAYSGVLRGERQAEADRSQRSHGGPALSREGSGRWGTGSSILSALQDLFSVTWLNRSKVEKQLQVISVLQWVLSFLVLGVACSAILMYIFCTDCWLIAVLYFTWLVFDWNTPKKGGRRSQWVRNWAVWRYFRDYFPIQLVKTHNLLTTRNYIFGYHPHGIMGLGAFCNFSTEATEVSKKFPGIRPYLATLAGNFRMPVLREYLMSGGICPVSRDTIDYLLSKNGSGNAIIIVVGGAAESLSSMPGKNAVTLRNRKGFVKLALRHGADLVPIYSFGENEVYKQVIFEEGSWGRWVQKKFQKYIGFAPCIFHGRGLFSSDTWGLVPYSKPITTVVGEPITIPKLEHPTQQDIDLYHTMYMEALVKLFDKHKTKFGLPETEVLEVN
Assay: Measurement of inhibitory effect against DGAT2 enzyme activity (SPA, Phospholipid FlashPlate, [14C]-TG production)
Assay type: biochemical
Details: concentration inhibiting [14C]-labeled triacyl glycerol (TG) production by 50%; 2 μg DGAT2-membrane protein from Sf-21 cells, 37° C.
Method in brief: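 Membranes from Sf-21 cells expressing human DGAT2 (2 μg) preincubated 20 min at 37 °C with compound (3 nM–10 μM, 1% DMSO) in HEPES/MgCl2/BSA with 50 μM 1,2-dioleoyl glycerol, then 1 μM [14C]oleoyl-CoA for 15 min. [14C]-TG measured by SPA FlashPlate; inhibition as % of untreated control.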

Compound	pIC50
CCOc1ccccc1O[C@@H]1CCCN(c2cncc(NC(=O)c3cccc(-c4cccc(CC(C)(C)C(=O)O)c4)c3)n2)C1 [Example 129, (R)-3-(3′-((6-(3-(2-ethoxyphenoxy)piperidin-1-yl)pyrazin-2-yl)carbamoyl)-[1,1′-biphenyl]-3-yl)-2,2-dimethylpropanoic acid]	6.27
CCOc1ccccc1O[C@@H]1CCCN(c2cncc(NC(=O)c3cccc(-c4ccc(CC(C)(C)C(=O)O)cc4)c3)n2)C1 [Example 130, (R)-3-(3′-((6-(3-(2-ethoxyphenoxy)piperidin-1-yl)pyrazin-2-yl)carbamoyl)-[1,1′-biphenyl]-4-yl)-2,2-dimethylpropanoic acid]	6.42
